Experimental data published in article PMC12057046, “Elucidation of short linear motif-based interactions of the MIT and rhodanese domains of the ubiquitin-specific protease 8” (Biology Direct, 2025).

Experiments:
USP8 Rhod domain = target: T1, USP8 Rhod domain (Homo sapiens, UniProt P40818); assay: SPOT array of predicted peptides from known interactors, USP8 Rhod domain; assay type: binding; conditions: Rhod-Peptide screening, SPOT array of predicted peptides; KIAA1614 positive control = 100
T1 construct: USP8 Rhod (174–317) (UniProt: P40818); GST (cleaved yes); made in house; host or cells: Escherichia coli BL21-Gold (DE3)
T1 sequence (P40818 174-317): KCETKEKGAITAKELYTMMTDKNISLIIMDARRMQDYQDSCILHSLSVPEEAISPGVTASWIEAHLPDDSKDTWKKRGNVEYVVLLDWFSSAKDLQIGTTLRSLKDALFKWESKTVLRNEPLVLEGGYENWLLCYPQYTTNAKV
From the text: The results therefore support that the USP8 Rhod domain binds to two distinct types of motifs (Fig. 4A, B). We used the motifs to scan for matching motifs in previously reported interactors using the SLiMSearch algorithm (Supplementary Table S8 A). As there was no clear match for the TET3-type motif except from only one hit, we focused on the KIAA1614-type motif. […] Both TP63 and USP21 are previously reported USP8 substrates, and the interactions may potentially contribute to substrate targeting. […] As the SHANK3 peptides (351-[…]−365 and 392-[…]−406) are closely located in the primary structure of SHANK3, it is tempting to speculate that both motifs contribute to the interactions between the full-length proteins by increasing the local concentration of binding motifs. […] Taken together, we find that the USP8 Rhod domain is a peptide binding domain that can be bound by peptides of two distinct types of motifs, with the Rx[LI]xGxxxPxxL motif and variants thereof being found in known USP8 substrates.
SPOT array alanine scanning of peptides was designed, and cellulose-bound peptides were synthesized using Fluorenylmethyloxycarbonyl (Fmoc) solid phase synthesis with a MultiPep synthesizer (INTAVIS Peptide Services, Tübingen, Germany). The membranes of predicted peptides were purchased by JPT Peptide Technologies (Berlin, Germany). The membranes were incubated with blocking buffer containing 5% skim milk in TBST (50 mM Tris, 150 mM NaCl pH 7.5, 0.05% Tween-20) for two hours at room temperature. The blocked membranes were incubated with GST-tagged proteins (100 µM for MIT domain and 150 µM for the Rhodanese domain) in blocking buffer overnight at 4 °C. After rinsed with TBST the membranes were incubated with HRP-conjugated anti-GST antibody (Cytiva, RPN1236; 1:3000 dilution) in blocking buffer for 1 h at 4 °C and subsequently rinsed with TBST to remove any excess antibody. The ECL reagent (Clarity Max Western ECL substrate, 1705062, BioRad) was used for chemiluminescence read-out with the ChemiDoc Imaging system (BioRad). The images were analysed with Fiji (ImageJ2 version 2.9.0). SLiMSearch4 was used to design the peptide arrays with known interactors predicted to contain the motifs. The background signal intensity was subtracted, and the corrected signal intensities were normalized to the positive control and presented as percentage.

USP8 MIT domain [1] = assay: SPOT array of predicted peptides from known interactors, USP8 MIT domain; assay type: binding, human; conditions: for Percentage (%) normalized to highest intensity and corrected for background: SPOT array, GST-tagged MIT 100 µM, overnight 4 °C, chemiluminescence, highest intensity = DNAJB6; for Percentage (%): Supplementary Fig. 4B, normalized to the highest intensity and corrected for background
From the text: To further assess the SLiM-based interactions of the USP8 MIT domain, we designed a peptide array tiling 24 potential binding sites in previously reported USP8 interactors. We used SLiMSearch to search for peptides that contain shorter or longer matches to the motif (Supplementary Table S4A). […] The DNAJB6_118 - 130 peptide was predicted as a binder based on a partial DFx{2,3}R motif. The DNAJB6-USP8 interaction is supported by previous GST-pulldown experiments and colocalization of the two proteins in male mouse germ cells, and the interaction is thought to be of importance to the protein quality control to yield functional spermatozoa. In the case of the CDH1_863 - 877 peptide it was predicted as USP8 MIT ligand based on the presence of an RFxxL motif. The previous support of the CDH1-USP8 interaction is based on proximity labelling mass spectrometry, and our results thus provide evidence for a binary interaction between the two proteins and define a binding site. To confirm that the motifs used to predict the interactions were of importance for binding we designed an alanine scanning peptide SPOT array analysis of the DNAJB6_118 - 130 and the CDH1_863 - 877 peptides. […] In summary, we find that the USP8 MIT domain binds to a MIM1-like motif that can be expressed by [[…]], as well as degenerate variants thereof. […] The membranes of predicted peptides were purchased by JPT Peptide Technologies (Berlin, Germany). The membranes were incubated with blocking buffer containing 5% skim milk in TBST (50 mM Tris, 150 mM NaCl pH 7.5, 0.05% Tween-20) for two hours at room temperature. The blocked membranes were incubated with GST-tagged proteins (100 μM for MIT domain and 150 μM for the Rhodanese domain) in blocking buffer overnight at 4 °C. After rinsed with TBST the membranes were incubated with HRP-conjugated anti-GST antibody (Cytiva, RPN1236; 1:3000 dilution) in blocking buffer for 1 h at 4 °C and subsequently rinsed with TBST to remove any excess antibody. The ECL reagent (Clarity Max Western ECL substrate, 1705062, BioRad) was used for chemiluminescence read-out with the ChemiDoc Imaging system (BioRad). The images were analysed with Fiji (ImageJ2 version 2.9.0). […] used to design the peptide arrays with known interactors predicted to contain the motifs. The background signal intensity was subtracted, and the corrected signal intensities were normalized to the positive control and presented as percentage.

USP8 MIT domain [2] = assay: Proteomic peptide-phage display (ProP-PD) selection against USP8 MIT domain; assay type: binding, human; parameters: Confidence: scale not given here
Experimental: We explored the peptide-binding of the USP8 MIT domain by using the purified GST-tagged MIT domain as bait in proteomic peptide-phage display (ProP-PD) selections and a library designed to display the predicted unstructured regions of the human proteome. The peptide-coding regions of the binding-enriched phage pools were analysed by next-generation sequencing (NGS). After filtering for high confidence ligands, ten ligands remained (Fig. 1B; Supplementary Table S1). None of the ten identified protein-protein interactions had been previously reported, based on comparison with the information available in IntAct, HIPPIE and BioGrid (February 2025). Of the USP8 interacting proteins found, the D site-binding protein (DBP), which is a clock-controlled transcription factor, appears as an interesting ligand as USP8 has been reported to be involved in controlling the circadian rhythm. Also, the CCDC88A-encoded protein Girdin is an interactor of potential biological relevance as it is a scaffolding protein involved in the EGFR pathway which USP8 is known to regulate. At the motif level, there was no shared consensus motif among the ten peptide ligands. However, by manual inspection we noticed that four of the peptides contained a shared [LI]xxR[IY]xxL sequence, which appears to be a variation of the [DE]xxLxxRLxxL[KR] MIM1 motif described in the Eukaryotic Linear Motif resource (ELM) (Fig. 1B). We performed a SPOT array alanine scanning analysis in which peptides are synthesised on a membrane, and where each amino acid position of the peptide is mutated to alanine (or glycine if alanine is in the wild type peptide) to evaluate the effect of the amino acid residues in binding. We tested two peptides containing the apparent MIM1-like motif, one from Girdin (Girdin1192 − 1207) and one from the histone-lysine N-methyltransferase SETD1B (SETD1B492 − 507). […] AlphaFold3 (AF3) modelling of the four peptides with the variant MIM1 motif and the MIT domain docked the peptides with high confidence (ipTM scores: HIVEP1_741 − 756: 0.87, Girdin1192 − 1207: 0.85, MLPH481 − 496: 0.82, SETD1B492 − 507: 0.75) at the expected MIM1 binding pocket (Fig. 1D). […] However, the USP8 MIT selection was dominated (more than 94% of NGS counts) by two peptides that lack an apparent MIM1 motif. The two peptides were from the EF-hand calcium-binding domain-containing protein 12 (EFCAB12_1 − 16: […]) and from DBP (DBP116 − 131: […]) (Fig. 1B). […] In comparison to this, the EFCAB12_1 − 16 peptide shares a potential Dx[YF]xxxH[SG] motif with the DBP116 − 131 (Fig. 1B). […] The AF3 model of DBP116 − 131 peptide supports the interaction of D120 of the DBP116 − 131 peptide with the residues K74 and N71 in the MIT domain (Fig. 1G), emphasizing the significance of the aspartic acid at this position. […] Of them, two peptides (SYNE2_853 − 868 and PKNOX1_56 − 71) where placed in the same binding site as the Girdin and DBP peptides with high confidences by AF3 modelling (ipTM 0.92 and 0.74; Supplementary Fig. S3).
Four rounds of phage selections were carried out using the second generation human disorderome library or the constructed deep mutational scanning library. At least three individual replicates were used for each bait protein. 10 µg of GST-tagged proteins or GST control (diluted in PBS from the stock of proteins kept in the purification elution buffer) were immobilized in 100 µL PBS on a 96-well MaxiSorp (Nunc) plate overnight at 4 °C. The plates were incubated with blocking buffer (with 0.5% BSA in PBS) for 1 h at 4 °C followed by washing with 0.05% Tween 20 in PBS four times. The naïve phage library (10^11 CFU) was diluted in 1/5th volume PEG/NaCl (20% PEG-8000, 0.4 M NaCl) and 1X PBS, incubated on ice for 10 min and centrifuged at 10,000 [drawing 3] g for 10 min. The pellet was resuspended in the volume of PBS (100 µL/ well). […]

Percentage (%) normalized to highest intensity and corrected for background (USP8 Rhod domain) [%] | Sequence | also measured
-1.54 | AKPPGPGVLMIHPPG | –
-0.828 | AQPLTPGVLMVQPAA | –
-1.21 | AQPPAPGVLMAQPLT | –
-1.3 | AQPPTPGVLMVHPSA | –
-0.581 | ASQAVPTFLMATAAA | –
11 | CGNQERKLEGSINDI | –
0.93 | DPSAPPSLLLLLLAQ | –
-0.521 | DPVESRGLPGPEDDK | –
-1.5 | EINLQRNIAGKVVTP | –
4.4 | FDQPHPQGLLPCQPQ | –
-1.22 | GKPPTPGVLMVHPPP | –
100 | GMERVLGGLSSPLRLL [KIAA1614 Positive control] | –
-0.117 | GPSTSRILSGWEGPS | –
52 | GVSCYRGLTGFGSRS | –
-0.0499 | HAVSSPDPLLCSDVT | –
45 | HEFSSPSHLLRTPSS | –

Percentage (%) normalized to highest intensity and corrected for background (USP8 Rhod domain) [%] | Sequence | also measured
2.19 | HPNTPRGLSGWEGPS | –
5.44 | IATYRRLLEGEEHRL | –
1.42 | MAQALPWLLLWMGAG | –
3.69 | MPSGSRLRLVELGLGL [Random KIAA1614 Negative control] | –
-1.37 | PEKGARSLAGPPPHF | –
-0.836 | PGPPYPPQLMTPSKL | –
-1.42 | PIPSSSPPPLSSPL | –
5 | PKPPRPASLLRHAPH | –
0.0399 | PRPTAPKPLLPRREE | –
– | RPHDIFRQRKQNT [VIRMA, Protein virilizer homolog peptide] | Percentage (%) normalized to highest intensity and corrected for background (USP8 MIT domain [1]): 6.6%; Percentage (%) (USP8 MIT domain [1]): 7%
– | SEENGLPLLVLPPP [SHANK1 A11, SHANK1 peptide, array position A11] | Percentage (%) normalized to highest intensity and corrected for background (USP8 MIT domain [1]): -5.69%; Percentage (%) (USP8 MIT domain [1]): -6%
– | SGETDLKLLEESIA [NR3C1, Glucocorticoid receptor peptide] | Percentage (%) normalized to highest intensity and corrected for background (USP8 MIT domain [1]): -4.47%; Percentage (%) (USP8 MIT domain [1]): -4%
– | SQKELESYMMRAQQLL [SYNE2_853 − 868, Nesprin-2 peptide] | NGS counts (%) (USP8 MIT domain [2]; ProP-PD, human disorderome library, GST-tagged MIT bait, four rounds of selection, percent of NGS counts associated with each peptide, Fig. 1B): 0.43%; max_counts (USP8 MIT domain [2]; Total NGS counts): 21; Confidence (USP8 MIT domain [2]; calculated based on four metrics: overlapping peptides, replicated peptides, motif match, peptide counts): 2; Counts (USP8 MIT domain [2]; fraction of NGS counts for a selection): 0.0007925; Promiscuity (USP8 MIT domain [2]; number of baits selections where the peptide has been observed, calculated on the domain level): 1; Replicates (USP8 MIT domain [2]; number of screens against the bait protein in which the peptide has been found): 3; Specificity (USP8 MIT domain [2]; proportion for the current bait of the total NGS read counts of the peptide for all baits screened with this library): 1; Percentage (%) normalized to highest intensity and corrected for background (USP8 MIT domain [1]): -4%; Percentage (%) (USP8 MIT domain [1]): -4%
– | SRGLQLLLLSCAYS [CD83, CD83 antigen peptide] | Percentage (%) normalized to highest intensity and corrected for background (USP8 MIT domain [1]): 5.58%; Percentage (%) (USP8 MIT domain [1]): 6%
– | TEQETLALLEVKRS [TMEM79, Transmembrane protein 79 peptide] | Percentage (%) normalized to highest intensity and corrected for background (USP8 MIT domain [1]): -4%; Percentage (%) (USP8 MIT domain [1]): -4%
